Patent US20170143712A1, “Methods of Treating Cancers, Immune and Autoimmune Diseases, and Inflammatory Diseases Based on BTK Occupancy and BTK Resynthesis Rate” (Acerta Pharma B.V., priority 2014, published 2017)

Legend:
Type in all cases: in vivo
[1] = tested on: systemic lupus erythematosus (SLE) in MRL/MpJFASlpr mice; experiment: MRL/MpJFASlpr mouse model of systemic lupus erythematosus; details: 15 mg/kg IP QD
Experimental: A study designed to determine the effects of candidate anti-inflammatory agent Formula (II) in oral (PO), daily (QD) administration in the treatment of systemic lupus erythematosus (SLE) in MRL/MpJFASlpr mice. Formula (II) was preformulated in vehicle (0.4% HPMC, 0.1% Tween 80, with simethicone for antifoaming). The female MRL/MpJFASlpr mice were dosed with vehicle or Formula (II) (1, 5, or 25 mg/kg) daily (QD) by the oral (PO) route dosing, or they were dosed QD by the intraperitoneal (IP) route with the reference compound cyclophosphamide (15 mg/kg). Prior to dosing, the candidate anti-inflammatory agent was reconstituted either by vortexing or stirring. […]
Female MRL/MpJFASlpr mice (n=50) that were 8-9 weeks old and weighed approximately 28-41 grams (mean 34 g) at enrollment (mouse age approx. 12 weeks) were obtained from The Jackson Laboratory, Bar Harbor, Me. (stock number 000485). These mice were housed 3-5/cage in shoe-box polycarbonate cages with wire tops, wood chip bedding, and suspended food and water bottles. No concurrent medications were given.
When they were 12 weeks old (study day 0), the female MRL/MpJFASlpr mice (n=10/group) were randomized by body weight into 5 groups as shown above. Treatment was initiated after randomization and continued for […] (mouse age 12 weeks to 23 weeks).
Starting on study week one, and then every week thereafter urine from each animal was tested for proteinuria using the Clinitech Multistick test strip (Bayer). The animals were also observed daily for significant clinical signs, moribundity and mortality. […] Efficacy evaluation was based on animal body weights, proteinuria analysis, lymphadenopathy scores, skin lesion scores, organ weights, anti-dsDNA titers, clinical chemistry parameters, and histopathologic evaluation of the kidneys.
Any animals showing signs of morbundity were terminated immediately. At necropsy (3 h post-dose, mouse age 23 weeks), all remaining animals were anesthetized with Isoflurane and bled via cardiac puncture for serum and plasma (Li Heparin). The animals were bled to exsanguinate then euthanized by cervical dislocation. Spleens, kidneys (paired), and lymph nodes were collected and weighed. Kidneys were collected into 10% neutral buffered formalin (NBF). Spleens were placed in RPMI 1% FBS media for splenocyte isolation. Serum samples for potential clinical chemistry analysis were stored frozen at −80° C. until shipment to Antech Diagnostics. Plasma samples were stored frozen at −80° C. for mouse antidsDNA IgG analysis by ELISA.
Blood samples were drawn via cardiac puncture from Isoflurane anesthetized animals into serum separator microtainer tubes for clinical chemistries. Samples were shipped to Antech Diagnostics for analysis.

[2] = tested on: established type II collagen-induced arthritis (CIA) in DBA/1 mice; experiment: 14-day mouse established type II collagen-induced arthritis (CIA), PO QD (Example 10); details: 0.2 mg/kg PO QD; mean(SE)
Experimental: Prior to dosing, the candidate anti-inflammatory agents were reconstituted either by vortexing or stirring. The candidate anti-inflammatory agents were administered to the DBA/1 mice daily (QD) by the oral (PO) route.
Immunization with heterologous type II collagen (CII) induces arthritis in mice of the DBA/1 strain, which is genetically susceptible to this disease. To develop an experimental model of autoimmunity more adequate for the study of human rheumatoid arthritis (RA), male DBA/1 mice were injected intradermally (ID) with bovine type II collagen to induce arthritis as reported by Trentham et al (Trentham D E, Townes A S, Kang A H Autoimmunity to type II collagen: an experimental model of arthritis. J. Exper. Med. 1977, 146:857-868) and Bendele A (Bendele A, Animal models of rheumatoid arthritis. J. Musculoskelet. Neuronal Interact. 2001, 1(4):377-85). Male DBA/1 mice (n=114) that were 6-7 weeks old and weighed approximately 18-27 grams (mean 22 g) at enrollment (arthritis day 1) were obtained from Taconic Farms, Inc. The male DBA/1 mice were at least 6 weeks old at time of first immunization and were housed 3-5/cage in shoe-box polycarbonate cages with wire tops, wood chip bedding, and suspended food and water bottles. These animals were identified by a distinct number of ink marks at the base of the tail delineating animal number. After enrollment, all cages were labeled with protocol number, group number, and animal numbers.
The male DBA/1 (n=10/group for arthritis) were anaesthetized with Isoflurane, shaved at the base of the tail, and injected intradermally with 150 μL of Freund's Complete Adjuvant (Difco, Detroit, Mich.) containing bovine type II collagen (BBP, batch #7) (1 mg/ml) at the base of the tail on day 0 and again on day 21. […] Randomization was done after swelling was obviously established in at least one paw (score of 1) and attempts were made to ensure approximately equal mean scores of 0.5-1 across groups at the time of enrollment. […] The male DBA/1 mice were terminated on arthritis day 14 (3 hours post-dose).
Efficacy evaluation of the administered anti-inflammatory agents was based on animal body weights, clinical arthritis scores, arthritis scores expressed as area under the curve (AUC), and histopathology on fore paws, hind paws, and knees. Histopathology results were expressed as 4 paws, knees only, or 6 joints (knees included). Day 13 was used as the endpoint for analysis of body weight change since the male DBA/1 mice were fasted overnight prior to necropsy on day 14.

[3] = tested on: established type II collagen-induced arthritis (CIA) in DBA/1 mice; experiment: Mouse established CIA, dosing from arthritis day 8, QD or BID (Example 11)
Text: A study was designed to determine the efficacy of a covalently acting BTK inhibitor, Formula (II) in inhibiting acute inflammation, pannus formation, cartilage destruction, and bone resorption associated with established type II collagen-induced arthritis (CIA) in DBA/1 mice. Immunization with heterologous type II collagen (CII) induces arthritis in mice of the DBA/1 strain, which is genetically susceptible to this disease. To develop an experimental model of autoimmunity more adequate for the study of human rheumatoid arthritis (RA), male DBA/1 mice were injected intradermally (ID) with bovine type II collagen to induce arthritis as reported by Trentham et al (Trentham D E, Townes A S, Kang A H Autoimmunity to type II collagen: an experimental model of arthritis. J. Exper. Med. 1977, 146:857-868) and Bendele A (Bendele A, Animal models of rheumatoid arthritis. J. Musculoskelet. Neuronal Interact. 2001, 1(4):377-85).
Following acclimatization, 6-7 week old male DBA/1 mice (n=10/group for arthritis) were immunized at the base of the tail, with 150 μL of Freund's Complete Adjuvant (Difco, Detroit, Mich.) containing 1 mg/mL bovine type II collagen by intradermal injection. Immunizations were performed day 0 and again on day 21. On study days 25-26, on day 8 following onset of arthritis, the mice were randomized into treatment groups. […] Dosing began on arthritis day 8 by oral gavage. Groups were treated with vehicle (0.4% HPMC, 0.2% Tween 80), Formula (II) at 25 mg/kg QD, Formula (II) at 12.5 mg/kg BID, or the reference compound dexamethasone (Dex) at 0.2 mg/kg QD. These animals were fasted overnight on arthritis day 20 (13 days after enrollment) prior to necropsy on arthritis day 21. Clinical scores were given for each of the paws (right front, left front, right rear, left rear) on arthritis days 1-21.
Efficacy evaluation was based on animal body weights, clinical arthritis scores, arthritis scores expressed as area under the curve (AUC), and histopathology on fore paws, hind paws, and knees. Histopathology results were expressed as 4 paws, knees only, or 6 joints (knees included). Day 19 was used as the endpoint for analysis of body weight change since the male DBA/1 mice were fasted overnight prior to necropsy on day 21.
Necropsies were conducted on fasted mice and terminal serum, fore paws, hind paws, and knees were collected into 10% neutral buffered formalin (NBF) for microscopy. Spleens were harvested and weighed.

Compound: O=P1(N(CCCl)CCCl)NCCCO1 (stereo not drawn) [Cyclophosphamide, cyclophosphamide, reference compound]
- Percent Survival [1]: 100%
- anti-dsDNA IgG levels in plasma, reduction vs Vehicle Disease Controls [1]: 76%
- Histopathology Glomerulus Diameter ([1]; All Animals, mean (SE)): *67.73 (2.10)
- Histopathology Interstitial Inflammation ([1]; All Animals, mean (SE)): *0.95 (0.19)
- Histopathology Summed Score ([1]; All Animals, mean (SE)): *2.18 (0.57)
- Kidney (paired) Weight (g) ([1]; All Animals, mean (SE)): *0.432 (0.01) g
- Change in Body Weight (g) wk 1-12 ([1]; Term Animals, mean (SE)): 3.30 (0.32) g
- Histopathology Glomerulus Diameter ([1]; Term Animals, mean (SE)): *67.73 (2.10)
- Histopathology Interstitial Inflammation ([1]; Term Animals, mean (SE)): *0.95 (0.19)
- Histopathology Summed Score ([1]; Term Animals, mean (SE)): *2.18 (0.57)
- Kidney (paired) Weight (g) ([1]; Term Animals, mean (SE)): *0.432 (0.01) g
- absolute cumulative lymph node weights, reduction vs Vehicle Disease Controls ([1]; all animals): 87%
- absolute kidney weights, reduction vs Vehicle Disease Controls ([1]; all animals): 23%
- absolute mesenteric lymph node weights, reduction vs Vehicle Disease Controls ([1]; all animals): 76%
- absolute spleen weights, reduction vs Vehicle Disease Controls ([1]; all animals): 77%
- glomerulus crescent score, reduction ([1]; all animals): 100%
- glomerulus diameter, reduction ([1]; all animals): 89%
- glomerulus score, reduction ([1]; all animals): 88%
- interstitial inflammation, reduction ([1]; all animals): 74%
- percent of glomeruli with crescents, reduction ([1]; all animals): 100%
- protein cast score, reduction ([1]; all animals): 90%
- summed histopathology scores, reduction ([1]; all animals): 86%
- vasculitis, reduction ([1]; all animals): 82%
- serum clinical chemistries vs Vehicle Disease Controls ([1]; all animals or term animals only): significantly increased ALB, A/G, alkaline phosphatase (ALK), GLU, and Na/K and significantly reduced globulin (GLOB), BUN, BUN/creatinine, K, and AMY
- urine protein scores vs Vehicle Disease Controls ([1]; all animals, mouse age 14-23 weeks): significantly reduced
- lymphadenopathy scores vs Vehicle Disease Controls ([1]; mouse age 15-23 weeks, all or term animals): significantly reduced
- skin lesion scores vs Vehicle Disease Controls ([1]; mouse age 20-23 weeks, all or term animals): significantly reduced
- absolute cumulative lymph node weights, reduction vs Vehicle Disease Controls ([1]; term animals): 90%
- absolute kidney weights, reduction vs Vehicle Disease Controls ([1]; term animals): 32%
- absolute mesenteric lymph node weights, reduction vs Vehicle Disease Controls ([1]; term animals): 82%
- absolute spleen weights, reduction vs Vehicle Disease Controls ([1]; term animals): 82%
- glomerulus crescent score, reduction ([1]; term animals only): 100%
- glomerulus diameter, reduction ([1]; term animals only): 85%
- glomerulus score, reduction ([1]; term animals only): 86%
- interstitial inflammation, reduction ([1]; term animals only): 70%
- percent of glomeruli with crescents, reduction ([1]; term animals only): 100%
- protein cast score, reduction ([1]; term animals only): 86%
- summed histopathology scores, reduction ([1]; term animals only): 82%
- vasculitis, reduction ([1]; term animals only): 80%
- urine protein scores vs Vehicle Disease Controls ([1]; term animals only, mouse age 14-16 and 19-23 weeks): significantly reduced
- body weight gain ([1]; week 1 to week 5): 1.03 g

Compound: C[C@@H]1C[C@H]2[C@@H]3CCC4=CC(=O)C=C[C@]4(C)[C@@]3(F)[C@@H](O)C[C@]2(C)[C@@]1(O)C(=O)CO [Dex, dexamethasone, reference compound]
- AUC (All Paws) - Corrected for Initial Score [2]: *−5.85(0.73)
- Change in Body Weight (g) [2]: −2.22(0.54) g
- Histopathology Summed Score Knees [2]: *1.80(0.66)
- Histopathology Summed Score Paws [2]: *0.09(0.09)
- Histopathology Summed Score Six-Joints [2]: *0.66(0.21)
- Paw Score AUC (All Paws) [2]: *1.30(0.37)
- AUC (All Paws) - Corrected for Initial Score ([3]; 0.2 mg/kg PO QD, mean(SE)): *−29.54(2.39)
- Change in Body Weight (g) Days 1-19 ([3]; 0.2 mg/kg PO QD, mean(SE)): −0.17(0.28) g
- Histopathology Summed Score Knees ([3]; 0.2 mg/kg PO QD, mean(SE)): *5.23(0.89)
- Histopathology Summed Score Paws ([3]; 0.2 mg/kg PO QD, mean(SE)): *7.20(1.00)
- Histopathology Summed Score Six-Joints ([3]; 0.2 mg/kg PO QD, mean(SE)): *6.54(0.91)
- Paw Score AUC (All Paws) ([3]; 0.2 mg/kg PO QD, mean(SE)): *16.61(2.05)
- absolute spleen weights, reduction vs vehicle controls ([3]; 0.2 mg/kg QD): 156%
- knee bone resorption, reduction vs vehicle controls ([3]; 0.2 mg/kg QD): 88%
- knee cartilage damage, reduction vs vehicle controls ([3]; 0.2 mg/kg QD): 39%
- knee inflammation, reduction vs vehicle controls ([3]; 0.2 mg/kg QD): 57%
- knee pannus formation, reduction vs vehicle controls ([3]; 0.2 mg/kg QD): 86%
- six joint histopathology, reduction of summed scores ([3]; 0.2 mg/kg QD): 57%
- summed knee scores, reduction vs vehicle controls ([3]; 0.2 mg/kg QD): 57%
